#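 How tested: cells in 96-well plates exposed to compound for 48 hours at five concentrations. TGI denotes the concentration required for complete inhibition of growth.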
# Tests used:
# Assay in all cases: growth of human tumour cells (NCI), 48 h
# [1] = system: HOP-92 NSCLC
# [2] = system: CAKI-1 renal
# [3] = system: 786-0 renal
# [4] = system: HCC-2998 colon
# [5] = system: HCT-15 colon
# [6] = system: SK-MEL-28 melanoma
# [7] = system: SF-295 CNS
# [8] = system: SN12C renal
# [9] = system: SF-539 CNS
# [10] = system: OVCAR-4 ovarian
# [11] = system: K-562 leukemia
# [12] = system: U251 CNS
# [13] = system: NCI-H226 lung
# [14] = system: M14 melanoma
# [15] = system: UO-31 renal
# [16] = system: MDA-N
# [17] = system: MDA-MB-231 breast
# [18] = system: PC-3 prostate
Compound,TGI [1],TGI [2],TGI [3],TGI [4],TGI [5],TGI [6],TGI [7],TGI [8],TGI [9],TGI [10],TGI [11],TGI [12],TGI [13],TGI [14],TGI [15],TGI [16],TGI [17],TGI [18]
N#C/C(=C\c1ccc(O)cc1O)C(N)=O,> 100 µM,> 100 µM,> 100 µM,> 100 µM,> 100 µM,> 100 µM,> 100 µM,> 100 µM,> 100 µM,> 100 µM,> 100 µM,> 100 µM,> 100 µM,> 100 µM,> 100 µM,,,
Cn1c(N)c(-c2c3ccccc3nc3ccccc23)c(=O)n(C)c1=O,> 100 µM,> 100 µM,> 100 µM,,> 100 µM,> 100 µM,> 100 µM,> 100 µM,> 100 µM,> 100 µM,> 100 µM,> 100 µM,,> 100 µM,,,,
CCOC(=O)c1cn2c([nH]c3ccccc32)c(C#N)c1=O,> 100 µM,> 100 µM,> 100 µM,> 100 µM,> 100 µM,> 100 µM,> 100 µM,> 100 µM,> 100 µM,> 100 µM,> 100 µM,> 100 µM,> 100 µM,> 100 µM,> 100 µM,,,
Nc1ccc(C(=O)NN2C(=O)C(Cl)C2c2cccc([N+](=O)[O-])c2)cc1 (stereo not given),40.7 µM,36 µM,33.1 µM,39.5 µM,45.7 µM,38.5 µM,43.1 µM,36.9 µM,35.1 µM,33.4 µM,47.5 µM,27.3 µM,36.8 µM,39.6 µM,31.3 µM,,,
CCCCCC(=O)Cc1cc(OC)cc2c1C(=O)Oc1cc(O)c(C(=O)O)c(CC(=O)CCCCC)c1O2,,> 100 µM,37.7 µM,> 100 µM,,,> 100 µM,,,,> 100 µM,29.3 µM,> 100 µM,> 100 µM,,,,
CO[C@H](c1ccccc1)[C@H](C)N(C)c1ccc2ccccc2c1C1=NC(C)(C)CO1,30.6 µM,,30.1 µM,,29.7 µM,34 µM,30.8 µM,33.2 µM,29.9 µM,,88.5 µM,30.5 µM,34.8 µM,33.6 µM,27.9 µM,,,
CC1(C)O[C@@H](CP(c2ccccc2)c2ccccc2)[C@H](CP(c2ccccc2)c2ccccc2)O1,27.1 µM,> 100 µM,22.8 µM,,44.5 µM,28 µM,57.7 µM,18.7 µM,21.1 µM,> 100 µM,,20.2 µM,51.1 µM,22.7 µM,,11.5 µM,31.9 µM,
NC(=O)C(=CN1CC(=O)NC1=S)C(N)=O,> 100 µM,> 100 µM,> 100 µM,> 100 µM,> 100 µM,> 100 µM,> 100 µM,> 100 µM,> 100 µM,> 100 µM,,> 100 µM,> 100 µM,> 100 µM,> 100 µM,> 100 µM,> 100 µM,
CC(C)c1cccc(C(C)C)c1NC1=CC(=O)C(=O)c2ccccc21,> 100 µM,> 100 µM,> 100 µM,> 100 µM,> 100 µM,> 100 µM,> 100 µM,> 100 µM,> 100 µM,,> 100 µM,> 100 µM,> 100 µM,> 100 µM,> 100 µM,,,
O=S(Cc1cc2c(cc1Br)OCO2)c1ccccc1 (stereo not given),> 100 µM,> 100 µM,> 100 µM,> 100 µM,> 100 µM,> 100 µM,> 100 µM,> 100 µM,91.2 µM,> 100 µM,> 100 µM,> 100 µM,> 100 µM,> 100 µM,> 100 µM,,,
COc1cccc(/C=C2\C(=O)N(C(=O)Cc3ccccc3)N=C2C)c1,,> 100 µM,> 100 µM,> 100 µM,> 100 µM,> 100 µM,> 100 µM,> 100 µM,> 100 µM,> 100 µM,> 100 µM,> 100 µM,> 100 µM,> 100 µM,> 100 µM,,,
CC1=NN(c2ccccc2)C(=O)C1=C1SCCCS1,64 µM,52.1 µM,> 100 µM,> 100 µM,> 100 µM,> 100 µM,73.7 µM,83.2 µM,,,47.6 µM,37.4 µM,> 100 µM,> 100 µM,> 100 µM,,,
O=C1C=C(Nc2ccccc2C(=O)CC(=O)C(=O)Nc2ccc(Cl)c(Cl)c2)c2ccccc2C1=O,> 100 µM,> 100 µM,> 100 µM,> 100 µM,> 100 µM,37.4 µM,> 100 µM,> 100 µM,> 100 µM,> 100 µM,> 100 µM,> 100 µM,> 100 µM,> 100 µM,> 100 µM,,,
CO[C@@]12CC(=O)/C(=C(O)\C=C\c3ccccc3)C(=O)[C@]1(OC)Cc1ccccc1O2,> 100 µM,,70.2 µM,47 µM,51.7 µM,59.8 µM,> 100 µM,> 100 µM,55.4 µM,> 100 µM,> 100 µM,59.1 µM,50.2 µM,> 100 µM,> 100 µM,,,
Cc1cc(C)c(NS(=O)c2cccc([N+](=O)[O-])c2)c(C)c1 (stereo not given),> 100 µM,,> 100 µM,,> 100 µM,> 100 µM,> 100 µM,> 100 µM,> 100 µM,,> 100 µM,> 100 µM,> 100 µM,> 100 µM,> 100 µM,,,> 100 µM
C1=c2ccccc2=C2C(=C(c3ccccc3)C(c3ccccc3)=NN2c2ccccc2)S1,> 100 µM,> 100 µM,> 100 µM,> 100 µM,> 100 µM,> 100 µM,> 100 µM,> 100 µM,> 100 µM,> 100 µM,> 100 µM,> 100 µM,> 100 µM,> 100 µM,> 100 µM,,,

# Source: PubChem BioAssay (NCI)
